Results: article PMC8780964, “Evaluation of the Pharmacokinetics of the Pancreastatin Inhibitor PSTi8 Peptide in Rats: Integration of In Vitro and In Vivo Findings” (Molecules, 2022)
Entries after “also recorded” stand apart in the source; their conditions may differ. Read-outs that look alike come from different tables or passages of the source. Ends that are not written are not given here.

How the values were obtained:
C57Bl/6 mice = conditions: mouse, in vivo; cited from earlier work
[1] = Gender difference PK study, i.v. and i.p., female SD rats
Description: (§1) Female SD rats were utilized and distributed into two groups (each group contained 6 animals). To each group, a 5 mg/kg dose of PSTi8 was administered i.v. and i.p. for PK determination.
(§2) After dosing in rats, blood (250 µL) samples were collected in EDTA containing microcentrifuge tubes at 0.08, 0.16, 0.33, 0.50, 0.75, 1, 2, 3, 4, 5 and 6 h time points. Plasma was separated from the blood after centrifugation and kept in a −80 °C freezer for LC-MS/MS analysis.
(§3) The PK parameters of PSTi8 were estimated with a one-compartmental PK model in Phoenix WinNonlin. The i.p. and s.c. PK were best described by a one-compartment first-order PK model without lag time. The i.v. PK was well explained by a one-compartment model with a bolus input and first-order elimination rate. The PK parameters include the elimination constant (K10), absorption constant (K01), Tmax, elimination half-life (K10-HL), absorption half-life (K01-HL), Cmax, AUC (stands for model derived AUC0-∞), CL/F, mean residence time (MRT) and Vd/F. The bioavailability of PSTi8 was determined using the ratio between the AUC from i.p. or s.c. and i.v. routes, after normalizing the dose.

[2] = Stability in rat plasma in different storage conditions (bioanalytical validation); assay type: in vitro ADME
Description: A QTRAP-4000 AB Sciex (SCIEX, Concord, ON, Canada) mass spectrometer using an electrospray ionization source tandem with the Shimadzu UFLC system was utilized for the quantitative analysis. Quantification was performed for PSTi8 and IS with positive ionization mode, using prominent selected reaction monitoring transitions as 607.80/771.20 and 342.20/229.10 m/z, respectively. The chromatographic separation of PSTi8 and IS was accomplished on a Phenomenex Aqua 5µ 125A (250 × 4.6 mm) column using an isocratic mode of mobile phase (methanol:0.1 % formic acid, 50:50 % v/v) with 0.4 mL/min flow rate. The analysis run time was 10 min and the injection volume was 10 μL for each sample. Analyst 1.6 software was used to regulate the LC-MS/MS instrument and for data quantification. The plasma sample extraction involved the SPE procedure using MAX cartridges, as previously described. The LC-MS/MS bioanalytical assay of PSTi8 peptide was validated in rat plasma as per the USFDA bioanalytical method validation guidance. The bioanalytical method development and validation of PSTi8 in mice plasma was recently reported. The bioanalytical validation and stability studies were conducted in rat plasma, as described earlier.

in vivo [3] = conditions: male, SD, rat, ip
Description: (§4) Male SD rats were utilized in this study and distributed into two groups (each group contained 6 animals). To each group, PSTi8 was administered i.p. at a dose of 10 and 20 mg/kg in rats.
as §2
(§5) The PK parameters of PSTi8 were estimated with a one-compartmental PK model in Phoenix WinNonlin. […] The PK parameters include the elimination constant (K10), absorption constant (K01), Tmax, elimination half-life (K10-HL), absorption half-life (K01-HL), Cmax, AUC (stands for model derived AUC0-∞), CL/F, mean residence time (MRT) and Vd/F. The bioavailability of PSTi8 was determined using the ratio between the AUC from i.p. or s.c. and i.v. routes, after normalizing the dose.

[4] = Dose proportionality PK study, i.p., male SD rats; conditions: for AUC(0-inf) / Cmax / Tmax / half-life: male, SD, rat, plasma, ip
Description: as §4, §2, §5

in vivo [5] = conditions: female, SD, rat, ip, 5 mg/kg
Description: as §1, §2, §3

[6] = PK and bioavailability after i.v., i.p. and s.c. administration in male SD rats; conditions: for K01 (absorption constant) / K10 (elimination constant) / half-life: male SD rats
Description: (§6) Rats were distributed into three groups and each group contained 6 animals.
as §2
(§7) The i.p. and s.c. PK were best described by a one-compartment first-order PK model without lag time. The i.v. PK was well explained by a one-compartment model with a bolus input and first-order elimination rate. The PK parameters include the elimination constant (K10), absorption constant (K01), Tmax, elimination half-life (K10-HL), absorption half-life (K01-HL), Cmax, AUC (stands for model derived AUC0-∞), CL/F, mean residence time (MRT) and Vd/F. The bioavailability of PSTi8 was determined using the ratio between the AUC from i.p. or s.c. and i.v. routes, after normalizing the dose.

[7] = Microsomal metabolic stability study; assay type: in vitro ADME, SD rats
Description: RLM was prepared from SD rats from our lab, as previously reported. In vitro metabolic stability of PSTi8 was determined using RLM. The reaction milieu was prepared by adding 50 mM Tris buffer (pH 7.4), 40 mM MgCl2 pre-incubated at 37 °C along with RLM (0.5 mg/mL) and spiked at a concentration (5 µM) of PSTi8. The reaction was started with NADPH (1 mM) and without NADPH (negative control using Tris buffer). A total of 100 µL samples were collected at 0, 5, 15, 30, 45 and 60 min, and the reaction was quenched with liquid nitrogen. Samples were processed with the SPE procedure and analyzed using the LC-MS/MS method. Negative control was used to assess the peptide stability in the reaction milieu and the positive control (Testosterone, 25 µM) was incubated to obtain the microsomal activity.

[8] = Blood–plasma partitioning study (KRBC/PL)
Description: Fresh blood was collected from SD rats and used for the blood–plasma partitioning study. The blood was pre-incubated in a shaking water bath for 10 min at 37 ± 0.5 °C. […] During the study, the fresh rat plasma was separated from the same batch of whole blood. During the incubation time course, 250 µL aliquots of incubated whole blood samples were collected at different time points (0, 15, 30 and 60 min) and centrifuged at 10,000 g for 5 min at RT to obtain the plasma. At each time point, 100 µL aliquot of the reference plasma sample was collected. Both, 100 µL aliquot of generated plasma and reference plasma were processed and analyzed using the LC-MS/MS method. For the determination of hematocrit (Hc), heparinized whole blood (1.0 mL) was taken in a hematocrit tube and centrifuged at 2000 g for 30 min. The Hc for the whole blood was calculated by using Equation (2) [21, 22].

[9] = Plasma protein binding, modified charcoal adsorption method; assay type: in vitro ADME; conditions: rat plasma
Description: The protein binding study of the PSTi8 peptide was conducted in rat plasma using the modified charcoal adsorption method. The suspension of dextran-coated charcoal (0.66%) was prepared in the DPBS buffer (pH 7.4) and stirred overnight (18 h), before the study. PSTi8 (2 µM and 5 µM) was prepared in 2.5 mL rat plasma and pre-incubated at 37 ± 0.5 °C for 15 min in a shaking water bath. The exact volume of the charcoal suspension, the same as the plasma, was centrifuged at 3000 g for 15 min to separate DPBS. The supernatant was decanted and the pre-incubated plasma was added to the charcoal pellet-containing tubes. Plasma-containing charcoal tubes were incubated under continuous stirring up to 4 h. A total of 200 µL samples were collected at the time points of 0, 5, 10, 20, 30, 45, 60, 90, 120 and 180 min, and then centrifuged at 11,000 g for 2.5 min. A total of 100 µL supernatant of the centrifuged sample was separated, extracted using SPE and analyzed with LC-MS/MS. The % peptide remaining in the supernatant plasma sample versus time points data was evaluated using the i.v. bolus two-compartment analysis model on Phoenix 6.3 WinNonlin (Pharsight Corporation, Saint Louis, MO, USA). The model is defined by the bi-exponential Equation (1):(1) B(t)=A1exp(−αt)+A2exp(−βt) where B(t) % is the bound peptide remaining at time t and where A1, A2, α and β are constants.

[10] = set-up: method as in PMID 31891874; conditions: i.p., mice; cited from earlier work
[11] = Equilibrium solubility in SGF and SIF; assay type: physicochemical
Description: The solubility of PSTi8 peptide was conducted using the equilibrium solubility method in SGF (pH 1.2) and SIF (pH 7.4). A total of 50 mg of PSTi8 was added to silanized glass vials containing 1 mL of buffer, and incubated for 1 h at 37 °C in a shaking water bath to attain equilibrium. After incubation, the samples were centrifuged for 10 min at 12,000 g, and supernatant was processed through SPE procedure and used for LC-MS/MS analysis.

Plasma stability study = assay type: in vitro ADME
Description: Fresh rat plasma (1 mL) was used and pre-incubated in a shaking water bath at 37 °C for 10 min. PSTi8 was added to rat plasma at a final concentration of 1 or 5 µM and then incubated for […] at 37 °C in a shaking water bath. A total of 100 µL samples were aliquoted at predetermined time points (0, 5, 15, 30, 60, 90, 120 and 240 min), followed by SPE processing and analyzed using the validated LC-MS/MS method. The plasma stability was determined as the % drug remaining at different time points relative to the drug at 0 min [19].

in vivo [12] = conditions: male, SD, rat, 5 mg/kg
Description: as §6, §2, §7

[13] = female, SD, rat, plasma, ip, 5 mg/kg
[14] = female, SD, rat, plasma, iv, 5 mg/kg
[15] = male, SD, rat, plasma, ip, 5 mg/kg
[16] = male, SD, rat, plasma, iv, 5 mg/kg
[17] = male, SD, rat, plasma, sc, 5 mg/kg

PEGKGEQEHSQQKEEEEEMAV-NH2 [PSTi8]
toxicity finding (C57Bl/6 mice): safe and non-toxic
AUC [1, 13]: 9980 ± 523 ng·h/mL
AUC(0-inf) [1, 13]: 8820 ± 589 ng·h/mL
Cmax [1, 13]: 7000 ± 216 ng/mL
Tmax [1, 13]: 28.8 min
bioavailability [1, 13]: 91.9 ± 6.14%
half-life [1, 13]: 19.2 ± 1.2 min
AUC(0-inf) [1, 14]: 9590 ± 1750 ng·h/mL
Cmax [1, 14]: 42600 ng/mL
MRT [1, 14]: 13.2 ± 1.2 min
half-life [1, 14]: 9.6 ± 1.2 min
K01 (absorption constant) ([1]; i.p. 5 mg/kg, female SD rats): 2.14 ± 0.12 h⁻¹
K10 (elimination constant) ([1]; i.p. 5 mg/kg, female SD rats): 2.19 ± 0.18 h⁻¹
K10-HL (elimination half-life) ([1]; i.p. 5 mg/kg, female SD rats): 0.32 ± 0.02 h
K10 (elimination constant) ([1]; i.v. 5 mg/kg, female SD rats): 4.50 ± 0.48 h⁻¹
gender difference in PK parameters and bioavailability ([1]; male vs female SD rats, 5 mg/kg i.p. and i.v., 5 mg/kg): no gender differences; also recorded: no significant difference
Accuracy (%) of stability sample ([2]; 0 h (for all), nominal 30 ng/mL): 102.34%
Accuracy (%) of stability sample ([2]; 0 h (for all), nominal 400 ng/mL): 101.56%
Accuracy (%) of stability sample ([2]; 0 h (for all), nominal 800 ng/mL): 101.70%
Accuracy (%) of stability sample ([2]; Autosampler (4 °C, 12 h), nominal 30 ng/mL): 112.60%
Accuracy (%) of stability sample ([2]; Autosampler (4 °C, 12 h), nominal 400 ng/mL): 94.13%
Accuracy (%) of stability sample ([2]; Autosampler (4 °C, 12 h), nominal 800 ng/mL): 99.90%
Accuracy (%) of stability sample ([2]; Bench-top (2 h), nominal 30 ng/mL): 96.27%
Accuracy (%) of stability sample ([2]; Bench-top (2 h), nominal 400 ng/mL): 96.17%
Accuracy (%) of stability sample ([2]; Bench-top (2 h), nominal 800 ng/mL): 106.70%
Accuracy (%) of stability sample ([2]; Bench-top (6 h), nominal 30 ng/mL): 103.47%
Accuracy (%) of stability sample ([2]; Bench-top (6 h), nominal 400 ng/mL): 93.00%
Accuracy (%) of stability sample ([2]; Bench-top (6 h), nominal 800 ng/mL): 97.97%
Accuracy (%) of stability sample ([2]; Long term (-80°C, 30 days), nominal 30 ng/mL): 110.13%
Accuracy (%) of stability sample ([2]; Long term (-80°C, 30 days), nominal 400 ng/mL): 102.87%
Accuracy (%) of stability sample ([2]; Long term (-80°C, 30 days), nominal 800 ng/mL): 108.03%
Accuracy (%) of stability sample ([2]; Three freeze-thaw cycles, nominal 30 ng/mL): 101.30%
Accuracy (%) of stability sample ([2]; Three freeze-thaw cycles, nominal 400 ng/mL): 106.30%
Accuracy (%) of stability sample ([2]; Three freeze-thaw cycles, nominal 800 ng/mL): 108.77%
stability in rat plasma with diverse storage conditions (in words) ([2]; storage conditions of Table S2): stable
CL/F (in vivo [3]; 10 mg/kg): 5.17 mL/min/kg
Vd/F (in vivo [3]; 10 mg/kg): 0.26 ± 0.09 L/kg
CL/F (in vivo [3]; 20 mg/kg): 3.17 mL/min/kg
Vd/F (in vivo [3]; 20 mg/kg): 0.15 ± 0.03 L/kg
K01 (absorption constant) ([4]; i.p. 10 mg/kg, male SD rats): 4.89 ± 1.74 h⁻¹
K10 (elimination constant) ([4]; i.p. 10 mg/kg, male SD rats): 1.33 ± 0.60 h⁻¹
K01 (absorption constant) ([4]; i.p. 20 mg/kg, male SD rats): 4.94 ± 0.97 h⁻¹
K10 (elimination constant) ([4]; i.p. 20 mg/kg, male SD rats): 1.26 ± 0.18 h⁻¹
PK pattern in dose proportionality study ([4]; i.p. 10 and 20 mg/kg, male SD rats): non-linear PK; also recorded: non-linear pharmacokinetics
AUC(0-inf) ([4]; 10 mg/kg): 32400 ng·h/mL
Cmax ([4]; 10 mg/kg): 24300 ng/mL
Tmax ([4]; 10 mg/kg): 22.8 min
half-life ([4]; 10 mg/kg, K01-HL (absorption half-life), i.p. 10 mg/kg, male SD rats): 9 ± 3 min
half-life ([4]; 10 mg/kg, K10-HL (elimination half-life), i.p. 10 mg/kg, male SD rats): 35.4 ± 13.8 min
AUC(0-inf) ([4]; 20 mg/kg): 111000 ng·h/mL
Cmax ([4]; 20 mg/kg): 85600 ng/mL
Tmax ([4]; 20 mg/kg): 22.8 min
half-life ([4]; 20 mg/kg, K01-HL (absorption half-life), i.p. 20 mg/kg, male SD rats): 8.4 ± 1.8 min
half-life ([4]; 20 mg/kg, K10-HL (elimination half-life), i.p. 20 mg/kg, male SD rats): 33.6 ± 5.4 min
CL/F (in vivo [5]): 9.5 mL/min/kg
Vd/F (in vivo [5]): 0.26 ± 0.01 L/kg
K01 (absorption constant) ([6]; i.p. 5 mg/kg): 2.90 ± 0.89 h⁻¹
K10 (elimination constant) ([6]; i.p. 5 mg/kg): 1.63 ± 0.33 h⁻¹
K10 (elimination constant) ([6]; i.v. 5 mg/kg): 3.79 ± 2.19 h⁻¹
AUC(0-inf) [6, 15]: 8100 ± 1040 ng·h/mL
Cmax [6, 15]: 6050 ± 348 ng/mL
Tmax [6, 15]: 28.8 min
bioavailability [6, 15]: 95 ± 12.2%
half-life ([6]; male, SD, rat, plasma, ip, 5 mg/kg, K01-HL (absorption half-life), i.p. 5 mg/kg): 15.6 ± 5.4 min
half-life ([6]; male, SD, rat, plasma, ip, 5 mg/kg, K10-HL (elimination half-life), i.p. 5 mg/kg): 26.4 ± 6 min
AUC(0-inf) [6, 16]: 8530 ± 1600 ng·h/mL
Cmax [6, 16]: 30200 ± 14600 ng/mL
MRT [6, 16]: 21.6 ± 15.6 min
half-life ([6]; male, SD, rat, plasma, iv, 5 mg/kg, K10-HL (elimination half-life), i.v. 5 mg/kg): 15 ± 10.8 min
AUC(0-inf) [6, 17]: 6690 ± 1510 ng·h/mL
Cmax [6, 17]: 4110 ± 888 ng/mL
Tmax [6, 17]: 36 min
bioavailability [6, 17]: 78.5 ± 17.7%
half-life ([6]; male, SD, rat, plasma, sc, 5 mg/kg, K01-HL (absorption half-life), s.c. 5 mg/kg): 24.6 ± 0.6 min
half-life ([6]; male, SD, rat, plasma, sc, 5 mg/kg, K10-HL (elimination half-life), s.c. 5 mg/kg): 25.2 ± 0.24 min
K01 (absorption constant) ([6]; s.c. 5 mg/kg): 1.68 ± 0.02 h⁻¹
K10 (elimination constant) ([6]; s.c. 5 mg/kg): 1.66 ± 0.01 h⁻¹
stability in rat liver microsomes (in words) ([7]; 5 µM, RLM 0.5 mg/mL, NADPH 1 mM): stable; also recorded: high stability
degradation in negative control experiment ([7]; 5 µM, RLM, without NADPH): no degradation
RBC:plasma partition coefficient (KRBC/PL) ([8]; 0.206 µM, time not given): 2.46 ± 0.44
blood–plasma partitioning ([8]; summary in abstract): > 2
fraction unbound at 2 µM ([9]; 2 µM): 0.264
fraction unbound at 5 µM ([9]; 5 µM): 0.307
fraction unbound ([9]; summary in abstract): < 0.31
bioavailability [10]: 52%
solubility thermodynamic at 1 h ([11]; simulated gastric fluid (SGF) pH 1.2, 37 °C): 9.3 mg/mL
solubility thermodynamic at 1 h ([11]; simulated intestinal fluid (SIF) pH 7.4, 37 °C): 25.8 mg/mL
stability in rat plasma (in words) (Plasma stability study): high stability; also recorded: stable
remaining at 4 h, 1 µM (Plasma stability study; 1 µM, at 4 h, rat plasma, 37 °C, read-out: plasma stability (% drug remaining)): 88.8 ± 3.39%
remaining at 4 h, 5 µM (Plasma stability study; 5 µM, at 4 h, rat plasma, 37 °C, read-out: plasma stability (% drug remaining)): 90.6 ± 6.65%
CL/F (in vivo [12]; ip): 10.3 mL/min/kg
Vd/F (in vivo [12]; ip): 0.39 ± 0.06 L/kg
CL/F (in vivo [12]; sc): 12.8 mL/min/kg
Vd/F (in vivo [12]; sc): 0.46 ± 0.09 L/kg

C[C@]12CC[C@H]3[C@@H](CCC4=CC(=O)CC[C@@]43C)[C@@H]1CC[C@@H]2O [testosterone, reference compound]
half-life of positive control ([7]; 25 µM, RLM): within the acceptable in-house limits
